Consider 1 compound from patent US12152016B2, “Aryl hydrocarbon receptor modulators and uses thereof” (Beth Israel Deaconess Medical Center, Inc., priority 2018, dated 2024).

Test [1] concerns DSS induced colitis. As to the kind of experiment: DSS induced colitis in mice. Type of test: in vivo, C57BL/6 mice. Here is the method:
C57BL/6 (8-10 week, male) mice were administered drinking water supplemented with 3% (wt/vol) dextran sodium sulfate (DSS; MP Biomedicals) for 7 days followed by a 13 day recovery period with unsupplemented drinking water. Compound 109 or compound 108 were suspended in vehicle (1% HPMC and 1% polysorbate 80 in water) and given daily by oral gavage (1 ug/mouse in 100 uL), starting at day 0. Control mice were administered 100 μL vehicle. Body weight and disease activity index (DAI) were recorded daily. DAI was determined by combining scores of weight loss, stool consistency, blood in stool, activity, and appearance.^1 Scores were determined as follows: change in weight (0: <1%, 1: 1-10%, 2: 10-18%, 3: 18-20%); stool consistency (0: normal, 1: loose stools, 2: diarrhea); stool blood (0: negative, 1: trace blood, 2: bloody stool, 3: gross bleeding), activity (0: normal, 1: low activity, 2: hiding, 3: no response to gentle stimuli) and appearance (0: normal, 1: rigor, 2: hunched posture). On day 7 and day 11, mice were euthanized and colon were removed for length measurement, histology, RNA isolation, and lamina propria mononuclear cell (LPMC) extraction as detailed below.
Dissected colon were cut longitudinally and rolled using the Swiss roll method with the distal side in the center.^2,3 Colons were fixed overnight in 10% neutral buffered formalin, processed for paraffin embedding and sectioned at 5 μm thickness. To visualize and quantify the inflammatory response and crypt loss, hematoxylin and eosin staining (H&E) was performed. Briefly, sections were cleared with xylene, rehydrated through alcohol gradient, stained by hematoxylin, washed by acid and ammonium alcohol, rinsed in water and exposed to Eosin followed by dehydrating through graded alcohols and cleared in xylene. All sections were mounted using Permount (Fisher Scientific) and visualized using a BX41 microscope (Olympus). For histological scoring, 3 transverse sections of Swiss roll were chosen and 9 (100×) images were captured for each section. Images were analyzed for inflammation and crypt structure and scored by a blind observer as follows: inflammation (0: rare inflammatory cells in the lamina propria; 1: increased numbers of inflammatory cells in the lamina propria; 2: confluence of inflammatory cells extending in to the submucosa; 3: transmural extension of the inflammatory infiltrate.); crypt loss (0: none; 1: basal 1/3 damaged; 2: basal 2/3 damaged; 3: only surface epithelium intact; 4: entire crypt and epithelium lost). Inflammation and crypt loss were scored separately and multiplied by a factor of 1-4 to adjust for impacted area of tissue section (1: 0-25%; 2: 25.1-50% affected; 3: 50.1-75% affected; 4: >75% affected).^1,4 To examine goblet cell number, sections were stained by a commercial periodic acid-Schiff (PAS) and Alcian blue kit (Fisher Scientific). For quantification, 3 transverse sections of Swiss roll were chosen per colon and 5 random images at 200x were taken per section in the distal region of the colon. Goblet cell number was counted per image and normalized to colon length by a blind observer using image J.^5
Colonic epithelium and lamina propria cells were isolated as previously described.^6,7 Briefly, colons were dissected and washed with HBSS to remove fecal contents. Colon were opened longitudinally and cut into 2 cm segments. […]

For test [2], the target named is T1, aryl hydrocarbon receptor (AHR) (Homo sapiens, UniProt P35869).
T1 sequence (P35869 11-848): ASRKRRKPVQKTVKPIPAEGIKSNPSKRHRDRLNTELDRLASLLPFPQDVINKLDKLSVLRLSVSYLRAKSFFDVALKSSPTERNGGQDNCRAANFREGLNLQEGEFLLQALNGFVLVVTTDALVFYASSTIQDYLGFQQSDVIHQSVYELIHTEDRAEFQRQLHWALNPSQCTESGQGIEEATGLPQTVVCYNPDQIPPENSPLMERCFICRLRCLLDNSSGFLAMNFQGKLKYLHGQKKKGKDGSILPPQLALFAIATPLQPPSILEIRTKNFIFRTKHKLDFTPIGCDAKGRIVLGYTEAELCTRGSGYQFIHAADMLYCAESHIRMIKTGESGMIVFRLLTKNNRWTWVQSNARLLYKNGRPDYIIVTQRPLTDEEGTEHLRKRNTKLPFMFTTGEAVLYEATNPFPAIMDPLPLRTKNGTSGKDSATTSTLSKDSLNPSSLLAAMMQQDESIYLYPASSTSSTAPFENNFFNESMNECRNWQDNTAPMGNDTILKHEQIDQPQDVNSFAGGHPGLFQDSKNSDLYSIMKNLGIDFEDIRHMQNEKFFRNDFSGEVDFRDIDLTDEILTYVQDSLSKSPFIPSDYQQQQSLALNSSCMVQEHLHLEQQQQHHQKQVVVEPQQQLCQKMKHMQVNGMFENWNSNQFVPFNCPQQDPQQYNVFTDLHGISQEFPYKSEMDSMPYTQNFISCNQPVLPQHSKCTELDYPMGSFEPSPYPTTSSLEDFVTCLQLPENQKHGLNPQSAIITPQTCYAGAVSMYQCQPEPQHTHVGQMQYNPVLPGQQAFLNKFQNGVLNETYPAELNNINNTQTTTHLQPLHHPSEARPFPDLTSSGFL
As to the kind of experiment: XRE-driven luciferase reporter assay, human HepG2. Background: Reporter assays use an easily measured gene product as a stand-in for the process of interest.
Protocol: The Human HepG2 cell line is a human liver cancer cell line, and provide a relevant in vitro AHR activity model. These Hep2G cells have been modified to stably express an AHR-responsive (XRE) firefly luciferase reporter gene to give Hep2G-XRE cells. The expression of luciferase should primarily reflect AHR-dependent transcription controlled by XRE.
Transfected cells were treated with AhR agonist (10^−5-10^−12) for 4.5 h in full medium. Cells were lysed and luciferase was activated using the Luciferase Assay System (Promega). Luminescence signals were measured with a FluroStar Omega microplate reader. Luminescence signals of compound treated groups were normalized to vehicle (DMSO) treated control and plotted as concentration dependent fold changes.

In the case of `N#Cc1cccc(C(=O)c2c[nH]c3ccccc23)n1` [Compound 108, 6-(1H-indole-3-carbonyl)pyridine-2-carbonitrile], in test [1] (3% DSS 7 days + 13 days recovery, 1 μg daily by oral gavage), the “DSS induced colitis, overall effect” value is “attenuates DSS induced colitis”. In addition, in test [1] (3% DSS, 1 μg/day PO), the overall disease score entry is on record as “improved the overall disease score”, the survival entry was “significantly improved survival” and the weight loss entry is on record as “reduced weight loss”. For the same compound, the “XRE luciferase Emax (fold)” value in test [2] (Human HepG2, fold over vehicle) is given as 74 fold. Also, the EC50 in test [2] (XRE luciferase EC50, Human HepG2, least square curve fitting, >10,000 = does not reach 50% of Emax of ITE at 10 μM (highest concentration tested)) was determined as 2.8 nM.

One may read the EC50 as the midpoint of the concentration-response curve. A higher EC50 goes with weaker potency.
